From patent EP0109255A2, “Glycerol derivatives” (ONO PHARMACEUTICAL CO., LTD., priority 1982, dated 1984)

Tested on: mice
Experiment: Acute toxicity by intravenous administration (tail vein)
Format: in vivo
Protocol: On the other hand, it was confirmed that the acute toxicity of all extent of the compounds of the present invention was more. than 30 mg/kg by intravenous administration. Therefore, glycerol derivatives of the present invention may be considered to be sufficiently safe and suitable for medical use. For example, the mortality (dead/used) in glycerol derivatives of the present invention, i.e. compounds prepared in Example 8, 8(j) and 8(r) was 2/10, 0/10 and 0/10, respectively, when each glycerol compound was intravenously administered to tail vein in ten mice at the dose of 30 mg/kg.

| SMILES | mortality (dead/used) (mouse, in vivo, iv, 30 mg/kg) | mortality (dead/used) (intravenously administered to tail vein in ten mice at the dose of 30 mg/kg) |
| --- | --- | --- |
| CCCCCCCCCCCCCCCCOCC(COCCCC[N+](C)(C)C)NC(=O)c1ccccc1 (stereo not drawn) [Example 8] | 2/10 |  |
| CCCCCCCCCCCCCCCCOCC(COCCCC[N+](C)(C)C)NC(=O)NCCC (stereo not drawn) [8 (r)] | 0/10 |  |
| CCCCCCCCCCCCCCCCOCC(COCCCC[N+](C)(C)C)NC(=O)OCCCC (racemic) [8 (j), (2RS)-l-0-hexadecyl-2-dehydroxy-2-butoxycarbonylamino-3-0-[4-(N,N,N-trimethylammonio)butyl]glycerol iodide] |  | 0/10 |
